From patent US20250163072A1, “MACROCYCLIC COMPOUNDS FOR THE TREATMENT OF CANCER” (Hoffmann-La Roche Inc., priority 2021, published 2025) come the findings set out here.

Assay type in all cases: cell-based, human
For test [1], the system named is KRAS G12C in NCI-H358 cells. In words: pERK inhibition assay, NCI-H358. The following applies: Homo sapiens, 4 hours incubation. How it is done: (§1) This assay is to measure the ability of test compounds in inhibiting the phosphorylation of ERK, the downstream signaling of KRAS G12C in NCI-H358 cells, KRAS G12D in AGS cells, and KRAS G12V in SW620. NCI-H358 (ATCC-CRL5807) cells, AGS (ATCC-CRL-1739) cells, SW620 (ATCC-CCL-227) cells were all grown and maintained using RPMI-1640 medium (Thermo Fisher Scientific) with 10% fetal bovine serum and 1% penicillin/streptomycin. On the day prior to compound addition, cells were plated in tissue culture-treated 96 well plates (Corning-3699) at a density of 30,000 cell/well, 20,000 cell/well, 30,000 cell/well for NCI-H358, AGS and SW620 respectively, and allowed for attachment overnight. Diluted compounds were then added in a final concentration of 0.5% DMSO. After 4 hours of incubation, the medium was removed, 100 μL of 4% formaldehyde was added, and the assay plates were incubated at room temperature for 20 minutes. The plates were then washed once with phosphate buffered saline (PBS), and permeabilized with 100 μL of chilled methanol for 10 minutes. Non-specific antibody binding to the plates was blocked using 50 μL 1×BSA blocking buffer (Thermo-37520, 10-fold dilution by Phosphate-Buffered Saline Tween (PBST) for at least 1 hour at room temperature. The amount of phosphor-ERK was determined using an antibody specific for phosphorylated form of ERK. Primary antibody (pERK, CST-4370, Cell Signaling Technology) was diluted 1:300 in blocking buffer, with 50 μL aliquoted to each well, and incubated overnight at 4° C. Cells were washed five times for 5 minutes with PBST. Secondary antibody (HRP-linked anti-rabbit IgG, CST-7074, Cell Signaling Technology) was diluted 1:1000 in blocking buffer, and 50 μL was added to each well and incubated 1-2 hours at room temperature. Cells were washed 5 times for 5 minutes with PBST, 100 μL TMB ELISA substrate (abcam-ab171523) were added and gently shake for 20 minutes. 50 μL stop solution (abcam-ab171529) were added, and then read the signal (OD450) by EnVision. IC50 was determined by fitting a 4-parameter sigmoidal concentration response model.

A further test has as its system KRAS G12D in AGS cells. In words: pERK inhibition assay, AGS. The following applies: Homo sapiens, 4 hours incubation. The method, then:
as §1

A further test relates to NCI-H358 cells. In words: Cell viability assay, NCI-H358. The conditions noted are these: Homo sapiens, NCI-H358, 72 hours, Cell Counting Kit-8, read-out: G12C IC50. The method, then:
(§2) The purpose of this cellular assay was to determine the effects of test compounds on the proliferation of human cancer cell lines NCI-H358 (ATCC-CRL5807) cells, AGS (ATCC-CRL-1739) cells, SW620 (ATCC-CCL-227) over a 3-day treatment period by quantifying the amount of NADPH present at endpoint using Cell Counting Kit-8. Cells were seeded at 5,000 cells/well (NCI-H358), 2,000 cells/well (AGS) 2,000 cells/well (SW620) in 96-well assay plates (Corning-3699) and incubated overnight. On the day of the assay, diluted compounds were then added in a final concentration of 0.5% DMSO. After 72 hours incubation, a tenth of the volume of cell counting kit 8(Dnjindo-CK04) was added into each well. Read the signal (OD450 minus OD650) using EnVision after 2 hours incubation. IC50 was determined by fitting a 4-parameter sigmoidal concentration response model.

The test system of a further test is KRAS G12V in SW620. Put plainly: pERK inhibition assay, SW620. The following applies: Homo sapiens, SW-620, SW620 cells, 4 hours incubation. How it is done: as §1
The next test concerns AGS cells. Put plainly: Cell viability assay, AGS. The following applies: Homo sapiens, 72 hours, Cell Counting Kit-8, read-out: G12D IC50. How it is done:
as §2

The test system of the next test is SW620 cells. In words: Cell viability assay, SW620. The conditions noted are these: Homo sapiens, SW-620, SW620, 72 hours, Cell Counting Kit-8, read-out: G12V IC50. How it is done: as §2
(Tetrazolium dyes change colour on reduction, which living cells bring about.)

`CCn1c(-c2cccnc2[C@H](C)OC)c2c3cc(ccc31)-c1cc(O)cc(c1)C[C@H](NC(=O)[C@H](C(C)C)N(C)C(=O)[C@H]1CCN(C(=O)[C@@H](F)Cl)C1)C(=O)N1CCC[C@H](N1)C(=O)OCC(C)(C)C2` (atropisomer, axis not shown; (M)) [Example 1, (3S)-1-[(2S)-2-chloro-2-fluoro-acetyl]-N-[(1S)-1-[[(8S,14S)-22-ethyl-4-hydroxy-(21M)-21-[2-[(1S)-1-methoxyethyl]-3-pyridyl]-18,18-dimethyl-9,15-dioxo-16-oxa-10,22,28-triazapentacyclo[18.5.2.12,6.110,14.023,27]nonacosa-1(26),2,4,6 (29),20,23 (27),24-heptaen-8-yl]carbamoyl]-2-methyl-propyl]-N-methyl-pyrrolidine-3-carboxamide]: the results for the half-maximal inhibitory concentration (IC50) (in test [1]; in the test with KRAS G12D in AGS cells; in the test on NCI-H358 cells) were 8 nM, 469 nM and 4 nM, respectively.

On to `CCn1c(-c2cccnc2[C@H](C)OC)c2c3cc(ccc31)-c1cc(O)cc(c1)C[C@H](NC(=O)[C@H](C(C)C)N(C)C(=O)[C@H]1CCN(C(=O)C(C)=O)C1)C(=O)N1CCC[C@H](N1)C(=O)OCC(C)(C)C2` (atropisomer, axis not shown; (M)) [Example 5, (3S)-N-[(1S)-1-[[(8S,14S)-22-ethyl-4-hydroxy-(21M)-21-[2-[(1S)-1-methoxyethyl]-3-pyridyl]-18,18-dimethyl-9,15-dioxo-16-oxa-10,22,28-triazapentacyclo[18.5.2.12,6.110,14.023,27]nonacosa-1(26),2,4,6(29),20,23(27),24-heptaen-8-yl]carbamoyl]-2-methyl-propyl]-N-methyl-1-(2-oxopropanoyl)pyrrolidine-3-carboxamide], for which the half-inhibitory concentration (IC50) (as a rule, the concentration that gives 50% inhibition) in test [1] stood at 8 nM; with KRAS G12D in AGS cells it was 105 nM; in the test with KRAS G12V in SW620, 26 nM; in the test with NCI-H358 cells, 77 nM; with AGS cells, 226 nM; with SW620 cells it was 57 nM.

Regarding `C#CC1CN(C(=O)N(C)[C@H](C(=O)N[C@H]2Cc3cc(O)cc(c3)-c3ccc4c(c3)c(c(-c3cccnc3[C@H](C)OC)n4CC)CC(C)(C)COC(=O)[C@@H]3CCCN(N3)C2=O)C(C)C)C1` (atropisomer, axis not shown; (M)) [Example 14, N-[(1S)-1-[[(8S,14S)-22-ethyl-4-hydroxy-(21M)-21-[2-[(1S)-1-methoxyethyl]-3-pyridyl]-18,18-dimethyl-9,15-dioxo-16-oxa-10,22,28-triazapentacyclo[18.5.2.12,6.110,14.023,27]nonacosa-1(26),2,4,6(29),20,23(27),24-heptaen-8-yl]carbamoyl]-2-methyl-propyl]-3-ethynyl-N-methyl-azetidine-1-carboxamide], the IC50 in test [1] came to 63 nM; in the test with KRAS G12D in AGS cells, 529 nM; in the test on KRAS G12V in SW620 it was 106 nM; in the test on NCI-H358 cells, 142 nM; in the test on AGS cells, 1380 nM; in the test on SW620 cells, 367 nM.

Turning to `C#CC1CCN(C(=O)N(C)[C@H](C(=O)N[C@H]2Cc3cc(O)cc(c3)-c3ccc4c(c3)c(c(-c3cccnc3[C@H](C)OC)n4CC)CC(C)(C)COC(=O)[C@@H]3CCCN(N3)C2=O)C(C)C)CC1` (atropisomer, axis not shown; (M)) [Example 15, N-[(1S)-1-[[(8S,14S)-22-ethyl-4-hydroxy-(21M)-21-[2-[(1S)-1-methoxyethyl]-3-pyridyl]-18,18-dimethyl-9,15-dioxo-16-oxa-10,22,28-triazapentacyclo[18.5.2.12,6.110,14.023,27]nonacosa-1(26),2,4,6(29),20,23(27),24-heptaen-8-yl]carbamoyl]-2-methyl-propyl]-4-ethynyl-N-methyl-piperidine-1-carboxamide], the IC50 was 32 nM in test [1]; 291 nM in the test with KRAS G12D in AGS cells; 67 nM with KRAS G12V in SW620; 89 nM in the test with NCI-H358 cells; 1240 nM in the test with AGS cells; 281 nM in the test on SW620 cells.

Consider `CCn1c(-c2cccnc2[C@H](C)OC)c2c3cc(ccc31)-c1csc(n1)C[C@H](NC(=O)[C@H](C(C)C)N(C)C(=O)[C@H]1CCN(C(=O)[C@H](F)Cl)C1)C(=O)N1CCC[C@H](N1)C(=O)OCC(C)(C)C2` (atropisomer, axis not shown; (M)) [Example 17, (3S)-1-[(2R)-2-chloro-2-fluoro-acetyl]-N-[(1S)-1-[[(7S,13S)-21-ethyl-(20M)-20-[2-[(1S)-1-methoxyethyl]-3-pyridyl]-17,17-dimethyl-8,14-dioxo-15-oxa-4-thia-9,21,27,28-tetrazapentacyclo[17.5.2.12,5.19,13.022,26]octacosa-1(25),2,5(28),19,22(26),23-hexaen-7-yl]carbamoyl]-2-methyl-propyl]-N-methyl-pyrrolidine-3-carboxamide], for which the IC50 in test [1] came to 23 nM; with KRAS G12V in SW620, 124 nM; with NCI-H358 cells, 6 nM; with AGS cells it was 1130 nM; in the test on SW620 cells, 449 nM.

As to `C#CC1CC(C(=O)N(C)[C@H](C(=O)N[C@H]2Cc3cc(O)cc(c3)-c3ccc4c(c3)c(c(-c3cccnc3[C@H](C)OC)n4CC)CC(C)(C)COC(=O)[C@@H]3CCCN(N3)C2=O)C(C)C)C1` (stereo partly drawn) [Example 4, N-[(1S)-1-[[(8S,14S)-22-ethyl-4-hydroxy-(21M)-21-[2-[(1S)-1-methoxyethyl]-3-pyridyl]-18,18-dimethyl-9,15-dioxo-16-oxa-10,22,28-triazapentacyclo[18.5.2.12,6.110,14.023,27]nonacosa-1(26),2,4,6(29),20,23(27),24-heptaen-8-yl]carbamoyl]-2-methyl-propyl]-3-ethynyl-N-methyl-cyclobutanecarboxamide], the IC50 in test [1] was determined as 42 nM; in the test with KRAS G12D in AGS cells, 297 nM; with KRAS G12V in SW620, 51 nM; in the test on NCI-H358 cells, 30 nM; in the test with SW620 cells, 162 nM.

As for `CCn1c(-c2cccnc2[C@H](C)OC)c2c3cc(ccc31)-c1cc(O)cc(c1)C[C@H](NC(=O)[C@H](C(C)C)N(C)C(=O)[C@H]1CCN(C(=O)C34CC3C4)C1)C(=O)N1CCC[C@H](N1)C(=O)OCC(C)(C)C2` (stereo partly drawn) [Example 11, (3S)-1-(bicyclo[1.1.0]butane-1-carbonyl)-N-[(1S)-1-[[(8S,14S)-22-ethyl-4-hydroxy-(21M)-21-[2-[(1S)-1-methoxyethyl]-3-pyridyl]-18,18-dimethyl-9,15-dioxo-16-oxa-10,22,28-triazapentacyclo[18.5.2.12,6.110,14.023,27]nonacosa-1(26),2,4,6(29),20,23(27),24-heptaen-8-yl]carbamoyl]-2-methyl-propyl]-N-methyl-pyrrolidine-3-carboxamide], the IC50 amounted to 83 nM in test [1]; 164 nM in the test on KRAS G12D in AGS cells; 380 nM in the test with KRAS G12V in SW620; 118 nM in the test with NCI-H358 cells; 161 nM in the test on SW620 cells.
